Measurements: US10570184B2, “GLP-1/glucagon receptor co-agonists for medical use” (Novo Nordisk A/S, priority 2014, dated 2020)
Starred links: 1 amine or outer side, 2 acyl side, 3 side chain; linkers in the order of their positions; H or OH if unused. Non-standard residues stand in square brackets, D forms with d. Residues, ends and D or L forms follow the SMILES beside them. Groups on a side chain read outwards from the residue. *: point of attachment. C18 diacid = O=C(O)CCCCCCCCCCCCCCCCC(=O)*; γGlu = O=C(O)[C@H](CCC(=O)[*:2])N[*:1]; Ac4c = NC1(C(=O)O)CCC1; AEEA = NCCOCCOCC(=O)O; Aib = CC(C)(N)C(=O)O

Target: T1, human GLP-1 receptor (Homo sapiens, UniProt P43220)
T1 construct: expressed in transfected cells; host or cells: membranes of BHK cells (parent BHKTS13), clone FCW467-12A
T1 sequence (P43220 24-463): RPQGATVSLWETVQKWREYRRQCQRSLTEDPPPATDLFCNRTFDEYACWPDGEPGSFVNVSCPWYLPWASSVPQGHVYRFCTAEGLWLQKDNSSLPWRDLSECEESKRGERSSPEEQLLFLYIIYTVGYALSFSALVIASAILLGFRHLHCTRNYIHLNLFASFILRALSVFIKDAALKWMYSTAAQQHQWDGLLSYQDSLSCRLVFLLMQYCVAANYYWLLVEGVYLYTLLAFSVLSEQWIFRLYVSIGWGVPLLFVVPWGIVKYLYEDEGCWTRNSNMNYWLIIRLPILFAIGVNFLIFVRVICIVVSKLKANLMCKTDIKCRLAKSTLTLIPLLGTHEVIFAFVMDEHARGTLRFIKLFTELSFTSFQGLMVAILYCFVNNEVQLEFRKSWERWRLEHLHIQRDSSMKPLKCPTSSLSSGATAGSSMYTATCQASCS
Assay: Assay (II)(a) GLP-1 receptor binding, 125I-GLP-1 displacement SPA on BHK membranes
Conditions: without presence of serum albumin; read-out: GLP-1R IC50 (nM) [Assay (II)(a)]
Method in brief: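 Membranes from BHK cells (clone FCW467-12A) stably expressing human GLP-1R were incubated with serially diluted compounds (8×10EE-13 to 8×10EE-7 M before addition) and [125I]-GLP-1-(7-36)NH2 with WGA SPA beads, 2 h at 30° C, pH 7.4. IC50 taken from displacement by non-linear regression. Run at ≤0.001% or 2.0% final serum albumin.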

Row | Compound | IC50
1 | CC[C@H](C)[C@H](NC(=O)[C@H](CC(C)C)NC(=O)[C@H](Cc1c[nH]c2ccccc12)NC(=O)[C@H](CCC(N)=O)NC(=O)[C@@H](NC(=O)[C@H](Cc1ccccc1)NC(=O)[C@H](CCC(=O)O)NC(=O)[C@H](CCCNC(=N)N)NC(=O)[C@H](C)NC(=O)[C@H](CCCNC(=N)N)NC(=O)[C@H](CCCNC(=N)N)NC(=O)[C@H](C)NC(=O)[C@H](CC(=O)O)NC(=O)[C@H](CC(C)C)NC(=O)[C@H](Cc1ccc(O)cc1)NC(=O)[C@H](CCCCN)NC(=O)[C@H](CO)NC(=O)[C@H](CC(C)C)NC(=O)[C@H](CC(=O)O)NC(=O)[C@H](CO)NC(=O)[C@@H](NC(=O)[C@H](Cc1ccccc1)NC(=O)[C@@H](NC(=O)CNC(=O)[C@H](CCC(N)=O)NC(=O)C(C)(C)NC(=O)[C@@H](N)Cc1c[nH]cn1)[C@@H](C)O)[C@@H](C)O)C(C)C)C(=O)N[C@@H](CO)C(=O)N[C@@H](CCCCNC(=O)CC[C@H](NC(=O)CC[C@H](NC(=O)COCCOCCNC(=O)COCCOCCNC(=O)CC[C@H](NC(=O)CCCCCCCCCCCCCCCCC(=O)O)C(=O)O)C(=O)O)C(=O)O)C(N)=O [Chem. 28, N^ε29-[(4S)-4-carboxy-4-[[(4S)-4-carboxy-4-[[2-[2-[2-[[2-[2-[2-[[(4S)-4-carboxy-4-(17-carboxyheptadecanoylamino)butanoyl]amino]ethoxy]ethoxy]acetyl]amino]ethoxy]ethoxy]acetyl]amino]butanoyl]amino]butanoyl]-[Aib2,Leu10,Ala16,Arg20,Glu21,Ile27,Ser28,Lys29]-Glucagon amide] (H-H[Aib]QGTFTSDLSKYLDARRAREFVQWLISK([γGlu-γGlu-AEEA-AEEA-γGlu-C18 diacid])-NH2; N-terminus assumed) | 0.2 nM
2 | CC[C@H](C)[C@H](NC(=O)[C@H](CC(=O)O)NC(=O)[C@H](CO)NC(=O)[C@@H](NC(=O)[C@H](Cc1ccccc1)NC(=O)[C@@H](NC(=O)CNC(=O)[C@H](CCC(N)=O)NC(=O)C1(NC(=O)[C@@H](N)Cc2c[nH]cn2)CCC1)[C@@H](C)O)[C@@H](C)O)C(=O)N[C@@H](CO)C(=O)N[C@@H](CCCCN)C(=O)N[C@@H](Cc1ccc(O)cc1)C(=O)N[C@@H](CC(C)C)C(=O)N[C@@H](CCC(=O)O)C(=O)N[C@@H](CO)C(=O)N[C@@H](CCCNC(=N)N)C(=O)N[C@@H](CCCNC(=N)N)C(=O)N[C@@H](C)C(=O)N[C@@H](CCCNC(=N)N)C(=O)N[C@@H](CCC(=O)O)C(=O)N[C@@H](Cc1ccccc1)C(=O)N[C@H](C(=O)N[C@@H](CCC(N)=O)C(=O)N[C@@H](Cc1c[nH]c2ccccc12)C(=O)N[C@@H](CC(C)C)C(=O)N[C@H](C(=O)N[C@@H](CCCCNC(=O)CC[C@H](NC(=O)CC[C@H](NC(=O)COCCOCCNC(=O)COCCOCCNC(=O)CC[C@H](NC(=O)CC[C@H](NC(=O)CCCCCCCCCCCCCCCCC(=O)O)C(=O)O)C(=O)O)C(=O)O)C(=O)O)C(=O)N[C@H](C(N)=O)[C@@H](C)O)[C@@H](C)CC)C(C)C [Chem. 26, N^ε28-[(4S)-4-carboxy-4-[[(4S)-4-carboxy-4-[[2-[2-[2-[[2-[2-[2-[[(4S)-4-carboxy-4-[[(4S)-4-carboxy-4-(17-carboxyheptadecanoylamino)butanoyl]amino]butanoyl]amino]ethoxy]ethoxy]acetyl]amino]ethoxy]ethoxy]acetyl]amino]butanoyl]amino]butanoyl]-[Acb2,Ile10,Glu15,Arg20,Glu21,Ile27,Lys28]-Glucagon amide] (H-H[Ac4c]QGTFTSDISKYLESRRAREFVQWLIK([γGlu-γGlu-AEEA-AEEA-γGlu-γGlu-C18 diacid])T-NH2; N-terminus assumed) | 0.4 nM

Continued by falling IC50, values first:

Row | IC50 | Compound
3 | 0.3 nM | CC[C@H](C)[C@H](NC(=O)[C@H](CC(C)C)NC(=O)[C@H](Cc1c[nH]c2ccccc12)NC(=O)[C@H](CCC(N)=O)NC(=O)[C@@H](NC(=O)[C@H](Cc1ccccc1)NC(=O)[C@H](CCC(=O)O)NC(=O)[C@H](CCC(N)=O)NC(=O)[C@H](C)NC(=O)[C@H](CCCNC(=N)N)NC(=O)[C@H](CCCNC(=N)N)NC(=O)[C@H](CO)NC(=O)[C@H](CCC(=O)O)NC(=O)[C@H](CC(C)C)NC(=O)[C@H](Cc1ccc(O)cc1)NC(=O)[C@H](CCCCN)NC(=O)[C@H](CO)NC(=O)[C@H](CC(C)C)NC(=O)[C@H](CC(=O)O)NC(=O)[C@H](CO)NC(=O)[C@@H](NC(=O)[C@H](Cc1ccccc1)NC(=O)[C@@H](NC(=O)CNC(=O)[C@H](CCC(N)=O)NC(=O)C1(NC(=O)[C@@H](N)Cc2c[nH]cn2)CCC1)[C@@H](C)O)[C@@H](C)O)C(C)C)C(=O)N[C@@H](CCCCNC(=O)CC[C@H](NC(=O)COCCOCCNC(=O)COCCOCCNC(=O)CC[C@H](NC(=O)CC[C@H](NC(=O)CCCCCCCCCCCCCCCCC(=O)O)C(=O)O)C(=O)O)C(=O)O)C(=O)N[C@H](C(N)=O)[C@@H](C)O [Chem. 38, N^ε28-[(4S)-4-carboxy-4-[[2-[2-[2-[[2-[2-[2-[[(4S)-4-carboxy-4-[[(4S)-4-carboxy-4-(17-carboxyheptadecanoylamino)butanoyl]amino]butanoyl]amino]ethoxy]ethoxy]acetyl]amino]ethoxy]ethoxy]acetyl]amino]butanoyl]-[Acb2,Leu10,Glu15,Glu21,Ile27,Lys28]-Glucagon amide] (H-H[Ac4c]QGTFTSDLSKYLESRRAQEFVQWLIK([γGlu-AEEA-AEEA-γGlu-γGlu-C18 diacid])T-NH2; N-terminus assumed)
4 | 0.2 nM | CC[C@H](C)[C@H](NC(=O)[C@H](CC(C)C)NC(=O)[C@H](Cc1c[nH]c2ccccc12)NC(=O)[C@H](CCC(N)=O)NC(=O)[C@@H](NC(=O)[C@H](Cc1ccccc1)NC(=O)[C@H](CC(=O)O)NC(=O)[C@H](CCCNC(=N)N)NC(=O)[C@H](C)NC(=O)[C@H](CCCNC(=N)N)NC(=O)[C@H](CCCNC(=N)N)NC(=O)[C@H](C)NC(=O)[C@H](CC(=O)O)NC(=O)[C@H](CC(C)C)NC(=O)[C@H](Cc1ccc(O)cc1)NC(=O)[C@H](CCCCN)NC(=O)[C@H](CO)NC(=O)[C@H](CC(C)C)NC(=O)[C@H](CC(=O)O)NC(=O)[C@H](CO)NC(=O)[C@@H](NC(=O)[C@H](Cc1ccccc1)NC(=O)[C@@H](NC(=O)CNC(=O)[C@H](CCC(N)=O)NC(=O)C(C)(C)NC(=O)[C@@H](N)Cc1c[nH]cn1)[C@@H](C)O)[C@@H](C)O)C(C)C)C(=O)N[C@@H](CO)C(=O)N[C@@H](CCCCNC(=O)CC[C@H](NC(=O)CC[C@H](NC(=O)COCCOCCNC(=O)COCCOCCNC(=O)CC[C@H](NC(=O)CCCCCCCCCCCCCCCCC(=O)O)C(=O)O)C(=O)O)C(=O)O)C(N)=O [Chem. 27, N^ε29-[(4S)-4-carboxy-4-[[(4S)-4-carboxy-4-[[2-[2-[2-[[2-[2-[2-[[(4S)-4-carboxy-4-(17-carboxyheptadecanoylamino)butanoyl]amino]ethoxy]ethoxy]acetyl]amino]ethoxy]ethoxy]acetyl]amino]butanoyl]amino]butanoyl]-[Aib2,Leu10,Ala16,Arg20,Ile27,Ser28,Lys29]-Glucagon amide] (H-H[Aib]QGTFTSDLSKYLDARRARDFVQWLISK([γGlu-γGlu-AEEA-AEEA-γGlu-C18 diacid])-NH2; N-terminus assumed)
5 | 0.1 nM | CC[C@H](C)[C@H](NC(=O)[C@H](CC(C)C)NC(=O)[C@H](Cc1c[nH]c2ccccc12)NC(=O)[C@H](CCC(N)=O)NC(=O)[C@@H](NC(=O)[C@H](Cc1ccccc1)NC(=O)[C@H](CCC(=O)O)NC(=O)[C@H](CCCNC(=N)N)NC(=O)[C@H](C)NC(=O)[C@H](CCCNC(=N)N)NC(=O)[C@H](CCCNC(=N)N)NC(=O)[C@H](C)NC(=O)[C@H](CC(=O)O)NC(=O)[C@H](CC(C)C)NC(=O)[C@H](Cc1ccc(O)cc1)NC(=O)[C@H](CCCCN)NC(=O)[C@H](CO)NC(=O)[C@H](CC(C)C)NC(=O)[C@H](CC(=O)O)NC(=O)[C@H](CO)NC(=O)[C@@H](NC(=O)[C@H](Cc1ccccc1)NC(=O)[C@@H](NC(=O)CNC(=O)[C@H](CCC(N)=O)NC(=O)C(C)(C)NC(=O)[C@@H](N)Cc1c[nH]cn1)[C@@H](C)O)[C@@H](C)O)C(C)C)C(=O)N[C@@H](CC(N)=O)C(=O)N[C@@H](CCCCNC(=O)CC[C@H](NC(=O)CC[C@H](NC(=O)COCCOCCNC(=O)COCCOCCNC(=O)CC[C@H](NC(=O)CCCCCCCCCCCCCCCCC(=O)O)C(=O)O)C(=O)O)C(=O)O)C(N)=O [Chem. 21, N^ε29-[(4S)-4-carboxy-4-[[(4S)-4-carboxy-4-[[2-[2-[2-[[2-[2-[2-[[(4S)-4-carboxy-4-(17-carboxyheptadecanoylamino)butanoyl]amino]ethoxy]ethoxy]acetyl]amino]ethoxy]ethoxy]acetyl]amino]butanoyl]amino]butanoyl]-[Aib2,Leu10,Ala16,Arg20,Glu21,Ile27,Lys29]-Glucagon amide] (H-H[Aib]QGTFTSDLSKYLDARRAREFVQWLINK([γGlu-γGlu-AEEA-AEEA-γGlu-C18 diacid])-NH2; N-terminus assumed)
